The values that follow come from ChEMBL document CHEMBL1268871, “Structure and functions of gamma-dodecalactone isolated from Antrodia camphorata for NK cell activation” (Bioorg Med Chem, 2010).

The species named for series [1] is Homo sapiens. In words: Immunomodulatory activity in human PMNC assessed as induction of CD69 expression at 375 uM within 10 mins by FACS analysis. Type of series: functional. In general terms: A flow cytometer gives signals particle by particle.
Series [2] deals with PBMC. In words: Cellular uptake in human PBMC after 2 hrs by GC analysis. In kind it is ADME, cell-based.
The test system of series [3] is PBMC. In words: Cellular uptake in human PBMC pellet solution after 10 mins by GC analysis. Type of series: ADME, cell-based.
The subject of series [4] is PBMC. In words: Cellular uptake in human PBMC pellet solution after 3 hrs by GC analysis. Type of series: ADME, cell-based.
Series [5] has as its system PBMC. In words: Cellular uptake in human PBMC after 30 mins by GC analysis. In kind it is ADME, cell-based. The note with it: 0.5 h.
Series [6] relates to PBMC. Nature of the series: Cellular uptake in human PBMC nucleus assessed per mg of protein after 2 hrs by GC analysis. Type of series: ADME, cell-based.
In series [7] the test system is PBMC. In words: Cellular uptake in human PBMC residual solution after 10 mins by GC analysis. In kind it is ADME, cell-based.
Series [8] relates to PBMC. Nature of the series: Cellular uptake in human PBMC nucleus assessed per mg of protein after 1 hr by GC analysis. In kind it is ADME, cell-based.
Series [9] has as its system PBMC. Nature of the series: Cellular uptake in human PBMC nucleus after 30 mins by GC analysis. In kind it is ADME, cell-based. The note with it: 0.5 h.
For series [10], the system named is PBMC. Nature of the series: Cellular uptake in human PBMC pellet solution after 1 hr by GC analysis. Type of series: ADME, cell-based.
For series [11], the system named is PBMC. Nature of the series: Cellular uptake in human PBMC after 20 mins by GC analysis. In kind it is ADME, cell-based.
Series [12] relates to PBMC. In words: Cellular uptake in human PBMC residual solution after 2 hrs by GC analysis. In kind it is ADME, cell-based.
The subject of series [13] is PBMC. In words: Cellular uptake in human PBMC residual solution after 30 mins by GC analysis. The note with it: 0.5 h. In kind it is ADME, cell-based.
Series [14] deals with PBMC. In words: Cellular uptake in human PBMC nucleus assessed per mg of protein after 30 mins by GC analysis. In kind it is ADME, cell-based. The note with it: 0.5 h.
For series [15], the species on record is Homo sapiens. Nature of the series: Immunomodulatory activity in human PMNC assessed as induction of CD69 expression after 24 hrs by FITC-conjugated flow cytometry. In kind it is functional.
The nature of series [16]: Cytotoxicity human PMNC up to 375 uM after 48 hrs by WST assay.
The nature of series [17]: Immunomodulatory activity in human PMNC assessed as induction of CD69 expression at 20 ng/ml after 24 hrs by FACS analysis. In kind it is functional.
The test system of series [18] is NK. Nature of the series: Immunomodulatory activity in human NK cells assessed as induction of TNF gene expression at 375 uM after 4 hrs by RT-PCR analysis. In kind it is functional, cell-based.
Series [19] has as its system PBMC. In words: Cellular uptake in human PBMC nucleus after 10 mins by GC analysis. In kind it is ADME, cell-based.
Series [20] relates to PBMC. In words: Cellular uptake in human PBMC nucleus residual solution after 30 mins by GC analysis. The note with it: 0.5 h. In kind it is ADME, cell-based.
The subject of series [21] is PBMC. Nature of the series: Cellular uptake in human PBMC after 1 hr by GC analysis. Type of series: ADME, cell-based.
Series [22] has as its system PBMC. Nature of the series: Cellular uptake in human PBMC residual solution after 20 mins by GC analysis. In kind it is ADME, cell-based.
For series [23], the system named is PBMC. Nature of the series: Cellular uptake in human PBMC nucleus after 20 mins by GC analysis. In kind it is ADME, cell-based.
Series [24] deals with PBMC. In words: Cellular uptake in human PBMC after 3 hrs by GC analysis. In kind it is ADME, cell-based.
The test system of series [25] is NK. Nature of the series: Immunomodulatory activity in human NK cells assessed as induction of CD69 gene expression at 375 uM after 4 hrs by RT-PCR analysis. Type of series: functional, cell-based.
The subject of series [26] is PBMC. In words: Cellular uptake in human PBMC nucleus residual solution after 1 hr by GC analysis. Type of series: ADME, cell-based.
The nature of series [27]: Metabolic stability in human NK cells assessed as conversion to 4-hydroxydodecanoic acid at 375 uM after 45 mins by RP-HPLC analysis. The note with it: 0.75 h. In kind it is ADME, cell-based.
Series [28] deals with NK. Nature of the series: Immunomodulatory activity in human NK cells assessed as induction of GZMB gene expression at 375 uM after 4 hrs by RT-PCR analysis. Type of series: functional, cell-based.
The nature of series [29]: Immunomodulatory activity in human PMNC assessed as induction of CD69 expression at 375 uM after 24 hrs by FACS analysis. Type of series: functional.
Series [30] can be described thus: Immunomodulatory activity in human PMNC assessed as induction of GraB expression at 375 uM after 24 hrs by FITC-conjugated flow cytometry relative to control. Type of series: functional.
In series [31] the test system is PBMC. In words: Cellular uptake in human PBMC pellet solution after 20 mins by GC analysis. Type of series: ADME, cell-based.
Series [32] deals with PBMC. Nature of the series: Cellular uptake in human PBMC nucleus residual solution after 20 mins by GC analysis. In kind it is ADME, cell-based.
Series [33] concerns PBMC. In words: Cellular uptake in human PBMC after 10 mins by GC analysis. Type of series: ADME, cell-based.
For series [34], the system named is PBMC. In words: Cellular uptake in human PBMC pellet solution after 2 hrs by GC analysis. Type of series: ADME, cell-based.
Series [35] concerns PBMC. Nature of the series: Cellular uptake in human PBMC residual solution after 3 hrs by GC analysis. Type of series: ADME, cell-based.
The nature of series [36]: Cellular uptake in human NK cells at 500 uM after 20 mins by GC analysis. In kind it is ADME, cell-based.
For series [37], the system named is PBMC. Nature of the series: Cellular uptake in human PBMC nucleus residual solution after 10 mins by GC analysis. Type of series: ADME, cell-based.
In series [38] the test system is NK. Nature of the series: Immunomodulatory activity in human NK cells assessed as induction of IL2 gene expression at 375 uM after 4 hrs by RT-PCR analysis. Type of series: functional, cell-based.
For series [39], the system named is PBMC. In words: Cellular uptake in human PBMC nucleus assessed per mg of protein after 20 mins by GC analysis. In kind it is ADME, cell-based.
Series [40] relates to PBMC. Nature of the series: Cellular uptake in human PBMC pellet solution after 30 mins by GC analysis. Type of series: ADME, cell-based. The note with it: 0.5 h.
Series [41] in a line: Immunomodulatory activity in human PMNC assessed as induction of CD69 expression at 100 uM after 24 hrs by FACS analysis. Type of series: functional.
The nature of series [42]: Immunomodulatory activity in human PMNC assessed as induction of CD69 expression at 200 uM after 24 hrs by FACS analysis. In kind it is functional.
Series [43] relates to NK. Nature of the series: Immunomodulatory activity in human NK cells assessed as induction of FASLG gene expression at 375 uM after 4 hrs by RT-PCR analysis. Type of series: functional, cell-based.
Series [44] has as its system PBMC. Nature of the series: Cellular uptake in human PBMC nucleus residual solution after 2 hrs by GC analysis. Type of series: ADME, cell-based.
In series [45] the test system is NK. In words: Immunomodulatory activity in human NK cells assessed as induction of IFNG gene expression at 375 uM after 4 hrs by RT-PCR analysis. Type of series: functional, cell-based.
Series [46] deals with PBMC. Nature of the series: Cellular uptake in human PBMC nucleus assessed per mg of protein after 10 mins by GC analysis. In kind it is ADME, cell-based.
The subject of series [47] is PBMC. Nature of the series: Cellular uptake in human PBMC nucleus after 1 hr by GC analysis. Type of series: ADME, cell-based.
The test system of the next series is HepG2. In words: Immunomodulatory activity in human HepG2 cells assessed as induction of innate immunity-mediated cytotoxicity at 375 uM after 24 hrs by fluorescence microscopy. In kind it is functional, cell-based.
The nature of series [48]: Immunomodulatory activity in human PMNC assessed as induction of FasL expression at 375 uM after 24 hrs by FITC-conjugated flow cytometry relative to control. Type of series: functional.
Series [49] deals with PBMC. Nature of the series: Cellular uptake in human PBMC residual solution after 1 hr by GC analysis. In kind it is ADME, cell-based.
For series [50], the system named is PBMC. Nature of the series: Cellular uptake in human PBMC nucleus after 2 hrs by GC analysis. Type of series: ADME, cell-based.
Series [51] in a line: Metabolic stability in human NK cells assessed as formation of 4-hydroxydodecanoic acid at 375 uM after 3 hrs by RP-HPLC analysis. In kind it is ADME, cell-based.

Active and inactive are the calls of the source. The calls are words filed in the database; no cut-off is given here.

Turning to `CCCCCCCC[C@H](O)CCC(=O)O`, the outcome in the series filed under Homo sapiens [1] was Active.

As for `CCCCCCCC[C@H]1CCC(=O)O1`, the Drug uptake in the series with PBMC [2] worked out at 0.009 µg; in the series on PBMC [3], 0 µg; in the series on PBMC [4] it was 0 µg; in the series with PBMC [5] it was 0.027 µg; in the series on PBMC [6] it was 0 ng; in the series on PBMC [7] it was 0.02 µg. Besides, the Drug uptake was 0.001 ng with PBMC [8]; 0.618 mg/mL with PBMC [9]; 0.007 µg in the series with PBMC [10]; 0.022 µg in the series on PBMC [11]; 0.009 µg in the series on PBMC [12]; 0.019 µg in the series with PBMC [13]. Further, the Drug uptake in the series with PBMC [14] is 0.016 ng; with PBMC [19], 0.791 mg/mL; in the series on PBMC [20] it was 9.95 ng; with PBMC [21], 0.017 µg; in the series with PBMC [22], 0.015 µg; in the series on PBMC [23], 0.774 mg/mL. Besides, the Drug uptake in the series on PBMC [24] amounted to 0 µg; in the series with PBMC [26], 8.4 ng; with PBMC [31], 0.007 µg; in the series with PBMC [32] it was 9.95 ng; in the series with PBMC [33] it was 0.02 µg; in the series with PBMC [34], 0 µg. Further, the Drug uptake was found to be 0 µg in the series with PBMC [35]; 18.62 ng in [36]; 8.44 ng with PBMC [37]; 0.013 ng in the series on PBMC [39]; 0.008 µg in the series with PBMC [40]; 0 ng with PBMC [44]. The Drug uptake in the series on PBMC [46] was found to be 0.011 ng; with PBMC [47], 0.9 mg/mL; in the series with PBMC [49], 0.01 µg; in the series on PBMC [50], 0.658 mg/mL. Besides, the Activity entry in the series listed under Homo sapiens [15] was “Dose-dependent effect”; in [16], “Non-toxic”; in [17], 33.65%; in series [27], 29%; in [29], 19.37%; in series [41] it was 10.51%. The Activity in [42] is on record as 13.58%. Moreover, the outcome in the series on NK [18], in the series on NK [25], with NK [28], with NK [38], in the series on NK [43] and with NK [45] was Active. The outcome with HepG2 was Active. Moreover, the “fold change (FC)” value in series [30] worked out at 1.5; in [48], 2.5.

With `CCCCCCCCC(O)CCC(=O)O` (centres undefined), in the series listed under Homo sapiens [1], the outcome was Active. Besides, the Stability entry in series [51] is recorded as “Unstable”.

`CCCCCCCC[C@@H](O)CCC(=O)O`: the result in the series filed under Homo sapiens [1] was Active.
